Laboratory results from ChEMBL document CHEMBL1140111, “Potent, orally bioavailable delta opioid receptor agonists for the treatment of pain: discovery of N,N-diethyl-4-(5-hydroxyspiro[chromene-2,4'-piperidine]-4-yl)benzamide (ADL5859)” (J Med Chem, 2008).
Active and inactive are the calls of the source. The calls are words filed in the database; no cut-off is given here.

What was measured:
Mu-type opioid receptor [1] = biological target: T1, Mu-type opioid receptor (Homo sapiens, UniProt P35372); experiment: Displacement of [3H]diprenorphine from human mu opioid receptor in CHO cells at 10 uM; type: cell-based
T1 sequence (P35372 whole entry): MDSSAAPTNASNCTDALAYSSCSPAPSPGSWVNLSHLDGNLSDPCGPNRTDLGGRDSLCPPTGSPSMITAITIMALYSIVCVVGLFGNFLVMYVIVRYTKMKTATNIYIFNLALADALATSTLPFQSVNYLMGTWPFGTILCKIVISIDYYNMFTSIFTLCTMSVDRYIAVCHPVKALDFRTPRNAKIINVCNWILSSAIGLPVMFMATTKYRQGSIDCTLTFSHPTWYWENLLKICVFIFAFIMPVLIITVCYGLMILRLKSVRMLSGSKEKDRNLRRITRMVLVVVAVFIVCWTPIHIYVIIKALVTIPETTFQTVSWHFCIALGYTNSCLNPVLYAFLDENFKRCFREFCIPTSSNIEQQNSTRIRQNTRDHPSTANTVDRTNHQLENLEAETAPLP

Rattus norvegicus [2] = experiment: Antihyperalgesic effect in rat assessed as reversal of Freund's complete adjuvant-induced paw pressure at 3 mg/kg, po; type: functional
[3] = biological target: T2, Kappa-type opioid receptor (Homo sapiens, UniProt P41145); experiment: Displacement of [3H]diprenorphine from human kappa opioid receptor in CHO cells; type: cell-based
T2 sequence (P41145 whole entry): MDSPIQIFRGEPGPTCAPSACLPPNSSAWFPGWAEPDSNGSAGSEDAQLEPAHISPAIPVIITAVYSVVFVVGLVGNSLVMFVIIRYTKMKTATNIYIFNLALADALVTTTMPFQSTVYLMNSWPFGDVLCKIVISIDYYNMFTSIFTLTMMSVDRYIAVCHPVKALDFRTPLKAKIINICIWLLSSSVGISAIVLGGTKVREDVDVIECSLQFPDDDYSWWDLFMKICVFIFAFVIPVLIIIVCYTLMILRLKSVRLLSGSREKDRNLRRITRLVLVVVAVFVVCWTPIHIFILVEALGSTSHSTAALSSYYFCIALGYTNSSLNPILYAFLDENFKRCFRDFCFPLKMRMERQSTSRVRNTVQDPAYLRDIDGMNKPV

[4] = biological target: T3, Delta-type opioid receptor (Homo sapiens, UniProt P41143)
T3 sequence (P41143 whole entry): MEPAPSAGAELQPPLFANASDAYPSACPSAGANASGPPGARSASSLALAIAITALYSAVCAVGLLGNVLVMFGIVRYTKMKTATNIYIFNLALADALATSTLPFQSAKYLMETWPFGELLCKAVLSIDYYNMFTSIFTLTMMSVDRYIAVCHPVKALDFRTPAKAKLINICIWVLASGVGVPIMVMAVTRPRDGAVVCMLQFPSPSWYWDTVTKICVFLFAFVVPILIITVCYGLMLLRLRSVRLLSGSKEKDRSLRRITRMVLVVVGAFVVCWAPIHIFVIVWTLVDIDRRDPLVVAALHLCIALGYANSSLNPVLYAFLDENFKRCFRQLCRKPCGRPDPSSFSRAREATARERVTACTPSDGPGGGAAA
Description: Agonist activity at human delta opioid receptor in CHO cells assessed as stimulation of [35S]GTPgammaS binding

[5] = biological target: Voltage-gated inwardly rectifying potassium channel KCNH2 (Homo sapiens, UniProt Q12809)
Sequence of Voltage-gated inwardly rectifying potassium channel KCNH2 (Q12809 whole entry): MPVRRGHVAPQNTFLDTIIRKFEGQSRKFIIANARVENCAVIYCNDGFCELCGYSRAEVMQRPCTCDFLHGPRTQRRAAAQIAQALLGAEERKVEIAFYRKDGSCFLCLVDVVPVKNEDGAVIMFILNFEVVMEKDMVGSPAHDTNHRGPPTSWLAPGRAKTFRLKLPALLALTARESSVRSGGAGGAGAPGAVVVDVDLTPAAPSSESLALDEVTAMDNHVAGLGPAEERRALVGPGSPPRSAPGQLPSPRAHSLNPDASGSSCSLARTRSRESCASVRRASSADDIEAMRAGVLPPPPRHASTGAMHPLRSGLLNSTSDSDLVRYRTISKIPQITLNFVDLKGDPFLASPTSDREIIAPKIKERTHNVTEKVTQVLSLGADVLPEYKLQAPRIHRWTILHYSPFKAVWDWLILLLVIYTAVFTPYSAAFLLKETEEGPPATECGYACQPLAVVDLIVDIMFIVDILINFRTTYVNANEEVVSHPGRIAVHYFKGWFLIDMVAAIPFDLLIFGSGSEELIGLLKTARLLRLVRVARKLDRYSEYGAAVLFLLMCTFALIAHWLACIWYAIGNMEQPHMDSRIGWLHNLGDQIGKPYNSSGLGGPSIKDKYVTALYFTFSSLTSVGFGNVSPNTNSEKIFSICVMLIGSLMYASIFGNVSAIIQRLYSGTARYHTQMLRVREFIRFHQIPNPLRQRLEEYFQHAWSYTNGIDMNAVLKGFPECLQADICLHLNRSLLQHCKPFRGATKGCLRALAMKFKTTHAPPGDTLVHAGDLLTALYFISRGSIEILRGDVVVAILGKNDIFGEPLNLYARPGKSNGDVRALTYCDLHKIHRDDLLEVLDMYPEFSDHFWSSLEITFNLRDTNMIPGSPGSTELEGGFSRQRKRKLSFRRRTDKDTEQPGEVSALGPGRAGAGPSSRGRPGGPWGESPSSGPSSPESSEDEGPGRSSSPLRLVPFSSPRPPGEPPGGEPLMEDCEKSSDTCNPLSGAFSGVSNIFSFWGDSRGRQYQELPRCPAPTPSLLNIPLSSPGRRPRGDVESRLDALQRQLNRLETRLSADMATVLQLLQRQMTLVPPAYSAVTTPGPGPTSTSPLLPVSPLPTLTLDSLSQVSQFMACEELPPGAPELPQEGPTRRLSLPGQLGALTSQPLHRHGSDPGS
Description: Inhibition of human ERG channel in HEK293 cells by voltage-clamp method

[6] = biological target: T3, Delta-type opioid receptor; experiment: biochemical
Description: Displacement of [3H]diprenorphine from human delta opioid receptor in CHO cells

[7] = biological target: T2, Kappa-type opioid receptor; experiment: Displacement of [3H]diprenorphine from human kappa opioid receptor in CHO cells at 10 uM; type: cell-based
Rattus norvegicus [8] = species: Rattus norvegicus; experiment: Antihyperalgesic effect in rat assessed as reversal of Freund's complete adjuvant-induced paw pressure after 60 mins; type: functional, organism-based
Rattus norvegicus [9] = species: Rattus norvegicus; experiment: Antihyperalgesic effect in rat assessed as reversal of Freund's complete adjuvant-induced paw pressure; type: functional
Rattus norvegicus [10] = experiment: Antidepressant activity in Sprague-Dawley rat assessed as decrease in immobility time at 3 mg/kg, po by forced swim test; type: functional, organism-based; parameters: dose 3 mg/kg
Rattus norvegicus [11] = experiment: Antidepressant activity in Sprague-Dawley rat assessed as increase in time spent swimming at 3 mg/kg, po by forced swim test; type: functional, organism-based; parameters: dose 3 mg/kg
[12] = Clearance in rat at 0.25 mg/kg, iv and 3.0 mg/kg, po; type: ADME, organism-based; details: in vivo
[13] = Volume of distribution at steady state in rat at 0.25 mg/kg, iv and 3.0 mg/kg, po; type: ADME, organism-based; details: in vivo, read-out: Vdss
[14] = Half life in rat at 3.0 mg/kg, po; type: ADME, organism-based; parameters: dose 3 mg/kg, route oral; details: in vivo
[15] = Cmax in rat at 0.25 mg/kg, iv and 3.0 mg/kg, po; type: ADME, organism-based; details: in vivo
[16] = Oral bioavailability in rat at 3 mg/kg; type: ADME, organism-based; details: in vivo
[17] = Clearance in dog at 1 mg/kg, iv and 3.0 mg/kg, po; type: ADME, organism-based, Canis lupus familiaris; details: in vivo
[18] = Volume of distribution at steady state in dog at 1 mg/kg, iv and 3.0 mg/kg, po; type: ADME, organism-based, Canis lupus familiaris; details: in vivo, read-out: Vdss
[19] = Half life in dog at 3.0 mg/kg, po; type: ADME, organism-based, Canis lupus familiaris; parameters: dose 3 mg/kg, route oral; details: in vivo
[20] = Cmax in dog at 1 mg/kg, iv and 3.0 mg/kg, po; type: ADME, organism-based, Canis lupus familiaris; details: in vivo
[21] = Oral bioavailability in dog at 3 mg/kg; type: ADME, organism-based, Canis lupus familiaris; details: in vivo
[22] = Fraction unbound in rat plasma protein at 2 uM; type: ADME, cell-free; details: read-out: PPB
[23] = Fraction unbound in dog plasma at 2 uM; type: ADME, cell-free, Canis lupus familiaris; details: read-out: PPB
Liver microsomes [24] = experiment: Metabolic stability in human liver microsomes; type: ADME, Microsome
[25] = Fraction unbound in human plasma at 2 uM; type: ADME, cell-free; details: read-out: PPB
Liver microsomes [26] = experiment: Metabolic stability in rat liver microsomes; type: ADME, Microsome
[27] = Metabolic stability in dog liver microsomes after 30 mins; type: ADME, Canis lupus familiaris, Microsome; details: read-out: Stability
Rattus norvegicus [28] = experiment: Toxicity in rat assessed as EEG disturbances at 10 mg/kg and 30 mg/kg, po; type: organism-based; details: in vivo
Rattus norvegicus [29] = experiment: Increase in locomotory activity in rat upto 1000 mg/kg, po; type: functional, organism-based; parameters: dose 1000 mg/kg
Rattus norvegicus [30] = experiment: Increase in stereotypic behavior in rat upto 1000 mg/kg, po; type: functional, organism-based; parameters: dose 1000 mg/kg
Rattus norvegicus [31] = experiment: Convulsion activity in rat upto 1000 mg/kg, po; type: functional, organism-based; parameters: dose 1000 mg/kg
Mus musculus [32] = experiment: Increase in locomotory activity in mouse upto 1000 mg/kg, po; type: functional, organism-based; parameters: dose 1000 mg/kg
Mus musculus [33] = experiment: Increase in stereotypic behavior in mouse upto 1000 mg/kg, po; type: functional, organism-based; parameters: dose 1000 mg/kg
Mus musculus [34] = experiment: Convulsion activity in mouse upto 1000 mg/kg, po; type: functional, organism-based; parameters: dose 1000 mg/kg
Rattus norvegicus [35] = experiment: Antihyperalgesic effect in rat assessed as reversal of Freund's complete adjuvant-induced paw pressure at 3 mg/kg, po in presence of naltrindole; type: functional, organism-based; parameters: dose 3 mg/kg
Rattus norvegicus [36] = experiment: Antidepressant activity in Sprague-Dawley rat assessed as increase in time spent swimming at 3 mg/kg, po in presence of naltrindole by forced swim test; type: functional, organism-based; parameters: dose 3 mg/kg
Rattus norvegicus [37] = species: Rattus norvegicus; experiment: Antihyperalgesic effect in rat assessed as reversal of Freund's complete adjuvant-induced paw pressure after 30 mins; type: functional, organism-based
Mu-type opioid receptor [38] = biological target: T1, Mu-type opioid receptor; experiment: Displacement of [3H]diprenorphine from human mu opioid receptor in CHO cells; type: cell-based

Compound CCN(CC)C(=O)c1ccc(C2=CC3(CCNCC3)Oc3ccc(O)cc32)cc1 has an inhibition (Mu-type opioid receptor [1]) of 36%, an Activity (Rattus norvegicus [2]) of 35% and a Ki [3] of 830 nM. The EC50 [4] was 1.4 nM, the IC50 [5] was 19800 nM and the Ki [6] was 0.43 nM.

For CCN1CCC2(C=C(c3ccc(C(=O)N(CC)CC)cc3)c3ccccc3O2)CC1, the inhibition (Mu-type opioid receptor [1]) was 13% and the inhibition [7] was 13%.

c1ccc(C2CC3(CCNCC3)Oc3ccccc32)cc1 (stereo not given) showed a Ki [6] of 160 nM.

For COC(=O)c1ccc(C2=CC3(CCNCC3)Oc3ccccc32)cc1, the inhibition (Mu-type opioid receptor [1]) was 54% and the Ki [3] was 520 nM.

Work on O=S(=O)(Cc1ccc(Cl)cc1)N1CCC2(CC1)CC(c1ccccc1)c1ccccc1O2 (stereo not given) yielded a Ki [6] of 500 nM.

O=C(O)c1ccc(C2=CC3(CCNCC3)Oc3ccccc32)cc1 showed an inhibition (Mu-type opioid receptor [1]) of 13%, an inhibition [7] of 14% and an EC50 [4] of 220 nM. The Ki [6] was 11 nM.

C=CCN1C[C@H](C)N([C@H](c2ccc(C(=O)N(CC)CC)cc2)c2cccc(OC)c2)C[C@H]1C gave an inhibition (Mu-type opioid receptor [1]) of 25% and an inhibition [7] of 28%.

Work on CCN(CC)C(=O)c1ccc(C2=CC3(CCNCC3)Oc3cc(O)ccc32)cc1 yielded an inhibition (Mu-type opioid receptor [1]) of 35% and an inhibition [7] of 39%.

COc1ccc(C2=CC3(CCNCC3)Oc3ccccc32)cc1 showed an inhibition (Mu-type opioid receptor [1]) of 42% and an inhibition [7] of 42%.

C1=C(c2ccccc2)c2ccccc2OC12CCNCC2 showed an inhibition (Mu-type opioid receptor [1]) of 42% and a Ki [3] of 3400 nM.

Compound CCN(CC)C(=O)c1cccc(C2=CC3(CCNCC3)Oc3ccccc32)c1 has an inhibition (Mu-type opioid receptor [1]) of 12%, an inhibition [7] of 10% and a Ki [6] of 330 nM.

Work on Cc1ccc(C2=CC3(CCNCC3)Oc3ccccc32)cc1 yielded an inhibition (Mu-type opioid receptor [1]) of 49% and an inhibition [7] of 57%.

Work on CCN(CC)C(=O)c1ccccc1C1=CC2(CCNCC2)Oc2ccccc21 yielded an inhibition (Mu-type opioid receptor [1]) of 12% and an inhibition [7] of 45%.

For CCN(CC)C(=O)c1ccc(C2=CC3(CCN(C)CC3)Oc3ccccc32)cc1, the inhibition (Mu-type opioid receptor [1]) was 12%, the inhibition [7] was 24% and the EC50 [4] was 89 nM. For the same compound, the Ki [6] was 3.5 nM.

With CCN(CC)C(=O)c1ccc(C2=CC3(CCNCC3)Oc3cccc(O)c32)cc1 [ADL-5859] the Activity (Rattus norvegicus [8]) was “Active”, the inhibition (Mu-type opioid receptor [1]) was 32% and the inhibition [7] was 37%. The Activity (Rattus norvegicus [2]) was 100%, the ED50 (Rattus norvegicus [9]) was 1.4 mg/kg and the Activity (Rattus norvegicus [10]) was “Active”. For the same compound, the Activity (Rattus norvegicus [11]) was “Active”, the clearance [12] was 30 mL/min/kg and the Vd [13] was 10.7 L/kg. For the same compound, the half-life [14] was 5.3 h, the Cmax [15] was 117 nM and the bioavailability [16] was 33.4%. The clearance [17] was 6.67 mL/min/kg, the Vd [18] was 2.5 L/kg and the half-life [19] was 4.7 h. It also gave a Cmax [20] of 1730 nM, a bioavailability [21] of 66.5% and a fraction unbound at 2 µM [22] of 0.159. It also gave a fraction unbound at 2 µM [23] of 0.152, a Stability (Liver microsomes [24]) of 64.9% and a fraction unbound at 2 µM [25] of 0.419. For the same compound, the Stability (Liver microsomes [26]) was 69.2%, the remaining at 0.5 h [27] was 98.7% and the Activity (Rattus norvegicus [28]) was “Non-toxic”. For the same compound, the Activity (Rattus norvegicus [29]) was “Non-toxic”, the Activity (Rattus norvegicus [30]) was “Non-toxic” and the Activity (Rattus norvegicus [31]) was “Non-toxic”. The Activity (Mus musculus [32]) was “Non-toxic”, the Activity (Mus musculus [33]) was “Non-toxic” and the Activity (Mus musculus [34]) was “Non-toxic”. The Activity (Rattus norvegicus [35]) was “inactive”, the Activity (Rattus norvegicus [36]) was “inactive” and the Activity (Rattus norvegicus [37]) was “Active”. For the same compound, the EC50 [4] was 20 nM, the IC50 [5] was 78000 nM and the Ki [6] was 0.84 nM.

In the case of N#Cc1ccc(C2=CC3(CCNCC3)Oc3ccccc32)cc1, the inhibition (Mu-type opioid receptor [1]) is reported as 60%, the inhibition [7] is reported as 63% and the EC50 [4] is reported as 200 nM. The Ki [6] was 18 nM.

With CCN(CC)C(=O)c1ccc(C2=CC3(CCNCC3)Oc3c(O)cccc32)cc1 the inhibition (Mu-type opioid receptor [1]) was 4%, the inhibition [7] was 28% and the Ki [6] was 360 nM.

Compound C=CCN1C[C@H](C)N([C@H](c2ccc(C(=O)N(CC)CC)cc2)c2cccc(O)c2)C[C@H]1C has a Ki [7] of 130 nM, a Ki [3] of 3400 nM and a Ki (Mu-type opioid receptor [38]) of 260 nM. The EC50 [4] was 0.4 nM and the Ki [6] was 0.32 nM.

In the case of FC(F)(F)c1ccc(C2=CC3(CCNCC3)Oc3ccccc32)cc1, the inhibition (Mu-type opioid receptor [1]) is reported as 42%, the Ki [3] is reported as 2000 nM and the Ki [6] is reported as 150 nM.

With CCN(CC)C(=O)c1ccc(C2=CC3(CCN(C(C)=O)CC3)Oc3ccccc32)cc1 the inhibition (Mu-type opioid receptor [1]) was 14%, the inhibition [7] was 2% and the IC50 [5] was 47400 nM. For the same compound, the Ki [6] was 1300 nM.

Oc1ccc(C2=CC3(CCNCC3)Oc3ccccc32)cc1 gave an inhibition (Mu-type opioid receptor [1]) of 54%, an inhibition [7] of 58% and an EC50 [4] of 220 nM. It also gave an IC50 [5] of 643 nM and a Ki [6] of 59 nM.
